Experimental data published in ChEMBL document CHEMBL4007384, “Synthesis and optimization of furano[3,2-d]pyrimidines as selective spleen tyrosine kinase (Syk) inhibitors” (Bioorg Med Chem Lett, 2016).
Converted amounts (≈) assume the structure as drawn.

Columns and labels:
[1] = Unbound clearance in rat microsomes; assay type: ADME, Microsome
[2] = Unbound clearance in human microsomes; assay type: ADME, Microsome
[3] = Solubility in pH 5 FeSSIF at 0.2 mg sonicated for 10 mins followed by incubation for 2 days by HPLC analysis; assay type: physicochemical
Cytochrome P450 3A4 = Cytochrome P450 3A4 (Homo sapiens, UniProt P08684); test: Time-dependent inhibition of CYP3A4 in human liver microsomes at 10 to 50 uM; assay type: ADME
Cytochrome P450 3A4, sequence (P08684 whole entry): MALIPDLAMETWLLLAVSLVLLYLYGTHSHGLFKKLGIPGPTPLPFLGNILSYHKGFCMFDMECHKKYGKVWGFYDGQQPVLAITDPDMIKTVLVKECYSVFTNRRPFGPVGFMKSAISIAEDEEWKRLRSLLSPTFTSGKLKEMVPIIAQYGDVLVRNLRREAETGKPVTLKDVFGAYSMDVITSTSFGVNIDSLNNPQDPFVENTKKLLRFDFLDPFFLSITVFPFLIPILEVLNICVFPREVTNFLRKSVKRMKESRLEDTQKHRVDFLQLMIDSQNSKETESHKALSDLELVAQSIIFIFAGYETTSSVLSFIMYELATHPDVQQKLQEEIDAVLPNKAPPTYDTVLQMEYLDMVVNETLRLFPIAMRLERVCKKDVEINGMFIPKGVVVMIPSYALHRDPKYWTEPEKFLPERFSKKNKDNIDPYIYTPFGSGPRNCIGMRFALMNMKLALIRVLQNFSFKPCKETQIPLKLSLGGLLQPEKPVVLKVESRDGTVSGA

CYP3A4 [4] = target: T1, CYP3A4 (Homo sapiens, UniProt P08684); test: Inhibition of CYP3A4 in human liver microsomes assessed as residual activity at 10 uM measured immediately relative to control; assay type: ADME; details: read-out: Activity
T1 sequence (P08684 whole entry): as above

CYP3A4 [5] = target: T1, CYP3A4; test: Inhibition of CYP3A4 in human liver microsomes assessed as residual activity at 50 uM measured immediately relative to control; assay type: ADME; details: read-out: Activity
CYP3A4 [6] = target: T1, CYP3A4; test: Inhibition of CYP3A4 in human liver microsomes assessed as residual activity at 10 uM measured after 30 mins relative to control; assay type: ADME; details: read-out: Activity
CYP3A4 [7] = target: T1, CYP3A4; test: Inhibition of CYP3A4 in human liver microsomes assessed as residual activity at 50 uM measured after 30 mins relative to control; assay type: ADME; details: read-out: Activity
Rattus norvegicus = test: Antiarthritic activity in rat model of collagen-induced arthritis assessed as inhibition of paw swelling at 3 mg/kg, bid for 8 days relative to control; assay type: functional; details: 192 h

SMILES: CC(C)CNc1nc(Nc2ccc3c(c2)NC(=O)COC3(C)C)nc2ccoc12
- CL free [1]: 64.5 L/h/kg
- CL free [2]: 30.4 L/h/kg

SMILES: O=C1CCc2ccc(Nc3nc(NCC(F)(F)F)c4occc4n3)cc2N1
- CL free [1]: 21.9 L/h/kg

SMILES: CC1(C)OCC(=O)Nc2cc(Nc3nc(NC4CC4)c4occc4n3)ccc21
- CL free [1]: 12 L/h/kg
- CL free [2]: 7.2 L/h/kg
- solubility at 48 h [3]: 158 µM (≈ 59.9 µg/mL)
- TDI (Cytochrome P450 3A4): Active
- activity at 0 min, 10 µM (CYP3A4 [4]): 97%
- activity at 0 min, 50 µM (CYP3A4 [5]): 80%
- activity at 0.5 h, 10 µM (CYP3A4 [6]): 56%
- activity at 0.5 h, 50 µM (CYP3A4 [7]): 14%

SMILES: CCNc1nc(Nc2ccc3c(c2)NC(=O)COC3(C)C)nc2ccoc12
- CL free [1]: 19.1 L/h/kg
- CL free [2]: 5.5 L/h/kg
- solubility at 48 h [3]: > 67 µM

SMILES: CC1(C)CCC(=O)Nc2cc(Nc3nc(NCC(F)(F)F)c4occc4n3)ccc21
- CL free [1]: 52.8 L/h/kg

SMILES: CC1(C)CCC(=O)Nc2cc(Nc3nc(NC4CC4)c4occc4n3)ccc21
- CL free [1]: 23.8 L/h/kg
- CL free [2]: 19 L/h/kg

SMILES: C[C@]12C=CC(=O)C=C1CC[C@@H]1[C@@H]2[C@@H](O)C[C@@]2(C)[C@H]1CC[C@]2(O)C(=O)CO [PREDNISOLONE]
- inhibition in vivo at 3 mg/kg (Rattus norvegicus): 86%
